Results taken from patent US20260174769A1, “MACROCYCLIC COMPOUNDS AND METHODS OF USE” (AMGEN INC., priority 2022, published 2026).
pIC50: −log10 of the molar value.

Biological target: His-tagged KRAS G12D protein (Homo sapiens, UniProt P01116, G12D)
Assay: KRAS G12D TR-FRET Assay
Format: binding
Conditions: TR-FRET binding
Protocol: The His-tagged KRAS G12D protein (Amgen) was diluted to 20 nM in Assay Buffer (20 mM HEPES, pH 7.4, 10 mM MgCl2, 50 mM NaCl, 0.1% BSA, 0.01% Tween-20, 10 μM GDP) and 2 μL was added to the appropriate wells of the 384-well plate. The plate was incubated for 30 minutes at room temperature. Biotinylated KRPep-2d substrate (Amgen) was diluted to 20 nM in Assay Buffer and 2 μL was added to all wells and incubated for 1 hour at room temperature. Detection Reagent (0.4 nM LANCE Eu-W1024 Anti-6×His (Perkin Elmer AD0401), 5 nM streptavidin-d2 (Cisbio 610SADLA)) was prepared in Assay Buffer, then 4 μL was added to the plate and incubated for 1 hour at room temperature.

Sequence of His-tagged KRAS G12D protein (P01116 1-188 isoform P01116-2 G12D): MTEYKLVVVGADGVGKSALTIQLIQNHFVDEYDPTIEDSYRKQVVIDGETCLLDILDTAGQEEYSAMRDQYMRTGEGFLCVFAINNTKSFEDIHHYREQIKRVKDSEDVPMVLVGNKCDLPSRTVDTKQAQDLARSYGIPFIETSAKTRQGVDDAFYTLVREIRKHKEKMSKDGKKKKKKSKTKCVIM

| Compound | pIC50 |
| --- | --- |
| C[C@@]12CCCCN(C1)c1nc(OC[C@@]34CCCN3C[C@H](F)C4)nc3c(F)c(ncc13)-c1c(c(Cl)cc3[nH]ncc13)CCCCC(=O)N2 (single isomer, unassigned) [Example 166] | 8.30 |
| O=C1OCC[C@@H]2CCc3cc4[nH]ncc4c(c32)-c2ncc3c(nc(OC[C@@]45CCCN4C[C@H](F)C5)nc3c2F)N2CCOC[C@H](C2)O1 (single isomer, unassigned) [Example 367] | 8.40 |
| O=C1N[C@@H]2CCCCN(C2)c2nc(OC[C@@]34CCCN3C[C@H](F)C4)nc3c(F)c(ncc23)-c2c3c(cc4[nH]ncc24)CC[C@@H]3CCO1 (single isomer, unassigned) [Example 302] | 5.90 |
| Cc1cc2[nH]ncc2c2c1C[C@@H](C)COC(=O)O[C@@H]1CCCN(C1)c1nc(OC[C@@]34CCCN3C[C@H](F)C4)nc3c(F)c-2ncc13 (single isomer, unassigned) [Example 214] | 7.66 |
| Cc1cc2[nH]ncc2c2c1CCC[C@H](F)C(=O)N(C)[C@@H]1CCCN(C1)c1nc(OC[C@@]34CCCN3C[C@H](F)C4)nc3c(F)c-2ncc13 (single isomer, unassigned) [Example 51] | 8.00 |
| Cc1cc2[nH]ncc2c2c1CCCCO[C@@H](C)[C@@H]1CN(CCO1)c1nc(OC[C@@]34CCCN3C[C@H](F)C4)nc3c(F)c-2ncc13 (single isomer, unassigned) [Example 244] | 7.57 |
| C[C@@H](Oc1nc2c3cnc(c(F)c3n1)-c1c(c(Cl)cc3[nH]ncc13)CCCOC(=O)O[C@@H]1COCCN2C1)[C@@H]1CCCN1C (single isomer, unassigned) [Example 203] | 7.77 |
| O=C1OCCCc2c(Cl)cc3[nH]ncc3c2-c2ncc3c(nc(OC[C@@]45CCCN4C[C@H](F)C5)nc3c2F)N2CCCC[C@](CF)(C2)O1 (single isomer, unassigned) [Example 340] | 8.40 |
| C[C@H]1CCOC[C@H]2CN(CCO2)c2nc(OC[C@@]34CCCN3C[C@H](F)C4)nc3c(F)c(ncc23)-c2c(c(Cl)cc3[nH]ncc23)C1 (single isomer, unassigned) [Example 252] | 7.55 |
| Fc1c2ncc3c(nc(OC[C@@]45CCCN4C[C@H](F)C5)nc13)N1CCOC[C@@H](C1)c1cnn(n1)CCCc1c(Cl)cc3[nH]ncc3c1-2 (single isomer, unassigned) [Example 297] | 5.09 |
| O=C1N[C@@H]2CCCCN(C2)c2nc(OC[C@@]34CCCN3C[C@H](F)C4)nc3c(F)c(ncc23)-c2c3c(cc4[nH]ncc24)CC[C@H]3CCO1 (single isomer, unassigned) [Example 301] | 8.30 |

Same assay, conditions: TR-FRET; read-out: KRAS G12D Binding IC50

| Compound | pIC50 |
| --- | --- |
| Fc1c2ncc3c(nc(OC[C@@]45CCCN4C[C@H](F)C5)nc13)N1CCOC[C@@H](Cc3ncc(o3)CCc3c(Cl)cc4[nH]ncc4c3-2)C1 (single isomer, unassigned) [Example 376] | 7.80 |
| CC12COCCN(C1)c1nc(OC[C@@]34CCCN3C[C@H](F)C4)nc3c(F)c(ncc13)-c1c(c(Cl)cc3[nH]ncc13)CCCc1nc2no1 (mixture of isomers) [Example 379, (1RS)-10-chloro-33-fluoro-24-(((2R,7a.S)-2-fluorotetrahydro-1H-pyrrolo[1,2-α]pyrrol-7a(5H)-yl)methoxy)-1-methyl-4,30-dioxa-3,13,14,19,23,25,27,34-octaazaheptacyclo[25.4.1.1~2,5~.1~18,22~.0~9,17~.0~12,16~.0~21,26~]tetratriaconta-2,5(34),9,11,14,16,18(33),19,21,23,25-undecaene] | 8.05 |
| Fc1c2ncc3c(nc(OC[C@@]45CCCN4C[C@H](F)C5)nc13)N1CCCCC(C1)c1noc(n1)CCCc1c(Cl)cc3[nH]ncc3c1-2 (mixture of isomers) [Example 382, (1RS)-10-chloro-33-fluoro-24-(((2R,7a.S)-2-fluorotetrahydro-1H-pyrrolo[1,2-α]pyrrol-7a(5H)-yl)methoxy)-4-oxa-3,13,14,19,23,25,27,34-octaazaheptacyclo[25.4.1.1~2,5~.1~18,22~.0~9,17~0~12,16~.0~21,26~]tetratriaconta-2,5(34),9,11,14,16,18(33),19,21,23,25-undecaene] | 8.30 |
